Several values for one entry are separate records, joined by “and”; a condition that tells them apart may be missing. Equal values may be shown once.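 A five-concentration, 48-hour dose response in 96-well plates underlies each endpoint, interpolated linearly between surrounding concentrations. GI50: concentration for 50% inhibition of growth. The concentration for full growth arrest is given as TGI.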
Tests used:
Assay in all cases: growth of human tumour cells (NCI), 48 h
LOX IMVI melanoma = tested on: LOX IMVI melanoma
UACC-257 melanoma = tested on: UACC-257 melanoma
HL-60(TB) leukemia = tested on: HL-60(TB) leukemia
SF-268 CNS = tested on: SF-268 CNS
NCI-H522 lung = tested on: NCI-H522 lung
SK-MEL-28 melanoma = tested on: SK-MEL-28 melanoma
SF-539 CNS = tested on: SF-539 CNS
NCI-H226 lung = tested on: NCI-H226 lung
NCI-H23 lung = tested on: NCI-H23 lung
HCC-2998 colon = tested on: HCC-2998 colon

Row | Structure (SMILES) | TGI (LOX IMVI melanoma) [µM] | TGI (UACC-257 melanoma) [µM] | TGI (HL-60(TB) leukemia) | TGI (SF-268 CNS) | TGI (NCI-H522 lung) [µM] | TGI (SK-MEL-28 melanoma) [µM] | TGI (SF-539 CNS) | TGI (NCI-H226 lung) | TGI (NCI-H23 lung) | TGI (HCC-2998 colon) | GI50 (UACC-257 melanoma) | GI50 (HL-60(TB) leukemia) | GI50 (SF-268 CNS) [µM] | GI50 (HCC-2998 colon) [µM] | GI50 (NCI-H522 lung) | GI50 (SK-MEL-28 melanoma) [µM] | GI50 (SF-539 CNS) | GI50 (NCI-H23 lung) | GI50 (NCI-H226 lung) [µM]
1 | O=C(O)C1(C(=O)O)CCN(S(=O)(=O)c2ccccc2)CC1 | > 100 | > 100 | > 100 µM | > 100 µM | > 100 | > 100 | > 100 µM | > 100 µM | > 100 µM | – | – | – | – | – | – | – | – | – | –
2 | CN1C(=O)NC2(O)c3ccccc3C(=O)C12O (centres undefined) | > 100 | > 100 | > 100 µM | > 100 µM | > 100 | > 100 | – | – | > 100 µM | – | – | – | – | – | – | – | – | – | –
3 | CCCC(=O)C(CC)/C(CCC(=O)N(Cc1ccccc1)Cc1ccccc1)=N/NC(=O)C[N+](C)(C)C (centres undefined) | – | > 100 | > 100 µM | > 100 µM | > 100 | > 100 | > 100 µM | > 100 µM | > 100 µM | – | – | – | – | – | – | – | – | – | –
4 | CCC1N2CCCCC2[C@@H]2c3[nH]c4ccccc4c3CCN12 (some centres undefined) | – | > 100 | > 100 µM | > 100 µM | > 100 | > 100 | > 100 µM | – | > 100 µM | > 100 µM | – | – | – | – | – | – | – | – | –
5 | C=C(C)[C@@H]1CC[C@]2(C)[C@H](CC=C3[C@@H]4CC(C)(C)CC[C@]4(C(=O)OC)CC[C@]32C)[C@@]1(C)CC/C(N)=N/O | – | 5.34 | 7.62 µM | 4.76 µM | 4.12 | 5.57 | 3.95 µM | – | 10.1 µM | 3.67 µM | 2.01 µM | 2.47 µM | 1.96 | 1.86 | 1.58 µM | 2.3 | 1.8 µM | 2.84 µM | –
6 | COc1cc(/C=C\c2cc(/C=C\c3ccc(O)c(OC)c3)n(C(=O)Nc3ccc(C(F)(F)F)cc3)n2)ccc1O | – | 14 | 6.45 µM | 15.4 µM | 4.65 | 5.9 | 7.45 µM | 27.6 µM | 6.48 µM | 3.82 µM | 4.01 µM | 1.98 µM | 2.8 | 2.04 | 1.78 µM | 2.19 | 2.37 µM | 2.13 µM | 7.29
7 | O=c1c2cc(-c3ccccc3)sc2nc2sc(-c3ccccc3)nn12 | > 100 | > 100 | > 100 µM | > 100 µM | > 100 | – | > 100 µM | > 100 µM | > 100 µM | – | – | – | – | – | – | – | – | – | –
8 | CCN(CC)CCNc1ccc(CO)c2sc3ccccc3c(=O)c12 | – | – | 24.5 µM [middle of 4 runs] | 16.3 µM and 21.2 µM and 20.9 µM | – | – | 24.1 µM [middle of 4 runs] | 4.48 µM and 44.8 µM and 26.1 µM | 16.4 µM and 22.7 µM and 29.3 µM | 25.2 µM [middle of 4 runs] | 1.7 µM and 3.79 µM | 8.47 µM [middle of 4 runs] | 3.62 | – | 1.48 µM and 8.14 µM | 2.29 | 4.53 µM and 7.78 µM and 16.7 µM | 3.14 µM and 13.6 µM | 1.74
9 | C#Cc1cccc(N2C(=O)CC(=P(c3ccccc3)(c3ccccc3)c3ccccc3)C2=O)c1 | – | > 100 | 38.2 µM | > 100 µM | > 100 | > 100 | – | > 100 µM | > 100 µM | > 100 µM | – | – | – | – | – | – | – | – | –
10 | COc1cc2c(c(OC)c1OC)C(=O)c1c-2n(CCCN)c(=O)c2cc([N+](=O)[O-])ccc12 | – | 12.2 | 10.9 µM | 1.95 µM | 14 | 3.97 | 1.16 µM | 40.1 µM | 3.81 µM | 0.804 µM | 5.18 µM | 4.5 µM | 0.364 | 0.299 | 5.79 µM | 1.76 | 0.55 µM | 1.52 µM | 19
11 | COC(=O)/C1=C/C2CC(/C=C(/c3ccccc3)C(=O)O1)C2 | 40.3 | 23.2 | 60.6 µM | – | 37.9 | 66.4 | 89.8 µM | 44.7 µM | 38.4 µM | – | – | – | – | – | – | – | – | – | –
12 | NC(N)=NS(=O)(=O)c1ccc(NC(=O)c2ccc(Cl)c3c(Nc4ccc(S(=O)(=O)N=C(N)N)cc4)c4ccccc4nc23)cc1 | > 100 | > 100 | > 100 µM | > 100 µM | > 100 | > 100 | > 100 µM | – | > 100 µM | – | – | – | – | – | – | – | – | – | –
13 | C=CC1(C)/C(=N\O)C(C)(CC)C(=O)N1O (centres undefined) | > 100 | > 100 | > 100 µM | > 100 µM | > 100 | > 100 | > 100 µM | – | > 100 µM | – | – | – | – | – | – | – | – | – | –
14 | O=C(/C=C/c1ccccc1)c1ccc(O)c(CN2CCN(c3cc4c(cc3F)c(=O)c(C(=O)O)cn4C3CC3)CC2)c1 | – | > 100 | > 100 µM | > 100 µM | > 100 | > 100 | > 100 µM | > 100 µM | 16.9 µM | 53.6 µM | 1.91 µM | 0.77 µM | 2.53 | 3.11 | 2.42 µM | 2.13 | 0.465 µM | 2.2 µM | 3.54
15 | CC(=O)C1C(=O)C(=O)N(c2ccc(Cl)cc2C)C1=O (centres undefined) | – | > 100 | > 100 µM | > 100 µM | > 100 | > 100 | > 100 µM | – | > 100 µM | > 100 µM | – | – | – | – | – | – | – | – | –

From PubChem BioAssay (NCI)
